Test results: US20240269155A1, “METHODS AND USES OF BORON COMPOUNDS IN THE TREATMENT OF NONTUBERCULOUS MYCOBACTERIUM INFECTIONS AND PHARMACEUTICAL COMPOSITIONS FOR TREATMENT OF SAME” (priority 2022, published 2024)
Like-named read-outs stand apart in the source and are kept apart here.

Tests used:
M. avium = experiment: MIC determination (CLSI M24-A2); format: cell-based, Mycobacterium avium
Protocol: (§1) The in vitro activity of the parent boron compound described herein was assessed by standard testing procedures such as the determination of minimum inhibitory concentration (MIC) as described in Clinical and Laboratory Standards Institute (CLSI) document M24-A2. Lower MIC values indicate high antibacterial activity, while higher MIC values indicate a reduced antibacterial activity. Generally, MIC values of about ≤2 mg/L indicate a good therapeutic (i.e., suitable for therapy) potency for antibacterial drugs, while MIC values of ≥8 mg/L indicate a lack of therapeutically useful activity for a test compound.
(§2) (MIC ranges from 0.063-2 mg/L).

M. intercelleulare = experiment: MIC determination (CLSI M24-A2); format: cell-based, Mycobacterium intercelleulare
Protocol: as §1, §2

[1] = test system: clinical isolates of M. abscessus complex; experiment: MIC against clinical isolates of M. abscessus complex; format: cell-based, M. abscessus and M. massiliense
[2] = Rat PK model, intravenous or oral gavage; format: in vivo, SD rats; settings: 5 mg/kg, parent compound Example 4 quantified
Excerpt: To further elucidate the therapeutic potential of drug compounds, pharmacokinetic (PK) data is often used to establish key parameters predictive of a therapy outcome, such as the area under the curve (AUC) of a plot monitoring the change in systemic drug concentration over time. A higher AUC value indicates a greater exposure to the drug, commonly associated with a greater therapeutic potential due to a higher amount of drug available to combat the infection. In contrast, a lower AUC value indicates a reduced exposure to the drug, resulting in a reduced amount of antibiotic available to combat bacterial infections. To that end, the compounds described herein were tested in the rat PK model of oral administration performed analogously to the methods described in the monograph Current Protocols in Pharmacology, 2005, 7.1.1-7.1.26, John Wiley & Sons, Inc.
All the compounds were administered to SD rats (The rats were randomly divided into groups with 3 rats in each group) by intravenous or oral gavage. The prodrugs convert to the parent drug molecule in vivo. Therefore, only the parent compound Example 4 was analyzed and quantified in all test samples. […] Furthermore, based on the known comparison of rodent tests to human data (such as known species-to-species PK scaling), this is possible with a lower dosage for therapy in humans.

[3] = Lung distribution study in mouse; format: in vivo, Balb/C mouse; settings: 10 mg/kg iv
M. abscessus CIP108297 = experiment: M. abscessus mouse lung infection model; format: in vivo, BALB/c mice
Protocol: To establish the efficacy of the compounds described herein in vivo, an M. abscessusmouse lung infection model was performed. Groups of BALB/c mice (The mice were randomly divided into groups with 6 mice in each group) were administered cyclophosphamide one week before infection, and then inoculated intranasally with M. abscessus CIP108297 (10^7 CFU/mouse). Three days after infection, the mice were subsequently treated with 10 mg/kg of the compound of Example 4 or GSK656 administered daily by subcutaneous, or 100 mg/kg linezolid (an approved antibiotic) or 200 mg/kg clarithromycin (an approved antibiotic) administered daily by oral gavage. […] This may be attributed to the surprising finding of lower MBC in the compound of Example 4.

M. gordonae = experiment: MIC determination (CLSI M24-A2); format: cell-based, Mycobacterium gordonae
Protocol: as §1, §2

M. scrofulaceum = experiment: MIC determination (CLSI M24-A2); format: cell-based, Mycobacterium scrofulaceum
Protocol: as §1, §2

M. massiliense = experiment: MIC determination (CLSI M24-A2); format: cell-based, Mycobacterium massiliense
Protocol: as §1, §2

Mycobacteria pathogens = experiment: MIC against mycobacteria pathogens, summary over species; format: cell-based, nontuberculous Mycobacterium; settings: for MIC range: M. intercelleulare, M. fortuitum, M. peregrinum, M. smegmatis, M. massiliense
M. fortuitum = experiment: MIC determination (CLSI M24-A2); format: cell-based, Mycobacterium fortuitum
Protocol: as §1, §2

[4] = test system: clinical isolates of M. abscessus complex; experiment: MBC against clinical isolates of M. abscessus complex; format: cell-based, M. abscessus and M. massiliense; settings: for Classification: from MBC/MIC ratio
M. peregrinum = experiment: MIC determination (CLSI M24-A2); format: cell-based, Mycobacterium peregrinum
Protocol: as §1, §2

M. abscessus = experiment: MIC determination (CLSI M24-A2); format: cell-based, Mycobacterium abscessus
Protocol: as §1, §2

M. smegmatis = experiment: MIC determination (CLSI M24-A2); format: cell-based, Mycobacterium smegmatis
Protocol: as §1, §2

[5] = 20 clinical isolates of M. abscessus complex

“[(2S,6R)-2-(Aminomethyl)-4-bora-3,5,8-trioxatricyclo[7.3.1.04,13]trideca-1(12),10-dien-6-yl]methanol hydrochloride [Example 4]” gave an MIC (M. avium) of 2 mg/L, an MIC (M. intercelleulare) of 2 mg/L and an MIC [1] of 0.063 mg/L. For the same substance, the MIC ([1]; clinical isolate A35) was 0.063 mg/L, the MIC ([1]; clinical isolate A51) was 0.063 mg/L and the MIC ([1]; clinical isolate A197) was 0.063 mg/L. It also gave an MIC ([1]; clinical isolate A215) of 0.063 mg/L, an MIC ([1]; clinical isolate A217) of 0.063 mg/L and an MIC ([1]; clinical isolate A222) of 0.063 mg/L. The MIC ([1]; clinical isolate A255) was 0.063 mg/L, the MIC ([1]; clinical isolate A311) was 0.063 mg/L and the MIC ([1]; clinical isolate G73) was 0.063 mg/L. The MIC ([1]; clinical isolate G74) was 0.063 mg/L, the MIC ([1]; clinical isolate G87) was 0.063 mg/L and the MIC ([1]; clinical isolate G110) was 0.063 mg/L. For the same substance, the MIC ([1]; clinical isolate G164) was 0.063 mg/L, the MIC ([1]; clinical isolate G182) was 0.063 mg/L and the AUC ([2]; iv) was 5661 ng·h/mL. For the same substance, the Cmax ([2]; iv) was 6776 ng/mL, the AUC ([2]; oral) was 856 ng·h/mL and the Cmax ([2]; oral) was 139 ng/mL. The Oral bioavailability ([2]; oral) was 15%, the “AUC ratio (lung/plasma)” value ([3]; analyte Example 4) was 2.39 and the AUClast ([3]; analyte Example 4, lung) was 12822 ng·h/g. For the same substance, the t1/2 ([3]; analyte Example 4, lung) was 1.46 h, the AUClast ([3]; analyte Example 4, plasma) was 5359 ng·h/mL and the t1/2 ([3]; analyte Example 4, plasma) was 1.87 h. The “reduction in bacteria in the lungs compared to the untreated groups” value (M. abscessus CIP108297; 10 mg/kg daily subcutaneous, treatment from 3 days after infection, lung CFU at 2 weeks post-infection) was roughly 7.8 log 10 CFU, the “lung pathology, H&E stained tissue sections” value (M. abscessus CIP108297; 2-weeks post-infection, treated group) was “pathologic changes were rare and lung lesions were negligible” and the “organisms in the lungs compared to animals treated with GSK656” value (M. abscessus CIP108297; both 10 mg/kg daily subcutaneous, 2 weeks post-infection) was “reduced markedly”. For the same substance, the MIC (M. gordonae) was 0.5 mg/L, the MIC (M. scrofulaceum) was 0.25 mg/L and the MIC (M. massiliense) was 0.063 mg/L. For the same substance, the “fold more potent than GSK656 (MIC)” value (Mycobacteria pathogens; M. avium and M. intercelleulare) was 4 fold, the MIC range (Mycobacteria pathogens; across M. scrofulaceum, M. gordonae, M. avium, M. abscessus) was 0.063 to 2 mg/L and the MIC range (Mycobacteria pathogens; rapidly growing mycobacteria (RGM): M. abscessus) was 0.063 to 0.125 mg/L. For the same substance, the MIC (M. fortuitum) was 0.125 mg/L, the MBC [4] was 0.125 mg/L and the “MBC compared with GSK656” value [4, 5] was “much lower MBC against all isolates tested”. The “bactericidal/bacteriostatic classification over the isolates” value [4, 5] was “bactericidal against half of the isolates”, the MBC ([4]; clinical isolate A35) was 0.25 mg/L and the Classification ([4]; clinical isolate A35) was “Bactericidal (bactericidal if the MBC/MIC ratio was <4)”. For the same substance, the MBC ([4]; clinical isolate A51) was 0.25 mg/L, the Classification ([4]; clinical isolate A51) was “Bactericidal (bactericidal if the MBC/MIC ratio was <4)” and the MBC ([4]; clinical isolate A197) was 1 mg/L. The Classification ([4]; clinical isolate A197) was “Bacteriostatic (bacteriostatic if the ratio was >4)”, the MBC ([4]; clinical isolate A213) was 0.25 mg/L and the Classification ([4]; clinical isolate A213) was “Bactericidal (bactericidal if the MBC/MIC ratio was <4)”. The MBC ([4]; clinical isolate A215) was 0.5 mg/L, the Classification ([4]; clinical isolate A215) was “Bacteriostatic (bacteriostatic if the ratio was >4)” and the MBC ([4]; clinical isolate A217) was 0.5 mg/L. For the same substance, the Classification ([4]; clinical isolate A217) was “Bacteriostatic (bacteriostatic if the ratio was >4)”, the MBC ([4]; clinical isolate A222) was 0.25 mg/L and the Classification ([4]; clinical isolate A222) was “Bactericidal (bactericidal if the MBC/MIC ratio was <4)”. The Classification ([4]; clinical isolate A232) was “Bactericidal (bactericidal if the MBC/MIC ratio was <4)”, the MBC ([4]; clinical isolate A255) was 0.25 mg/L and the Classification ([4]; clinical isolate A255) was “Bactericidal (bactericidal if the MBC/MIC ratio was <4)”. For the same substance, the MBC ([4]; clinical isolate A268) was 2 mg/L, the Classification ([4]; clinical isolate A268) was “Bacteriostatic (bacteriostatic if the ratio was >4)” and the MBC ([4]; clinical isolate A274) was 2 mg/L. For the same substance, the Classification ([4]; clinical isolate A274) was “Bacteriostatic (bacteriostatic if the ratio was >4)”, the MBC ([4]; clinical isolate A311) was 0.25 mg/L and the Classification ([4]; clinical isolate A311) was “Bactericidal (bactericidal if the MBC/MIC ratio was <4)”. The MBC ([4]; clinical isolate A353) was 0.25 mg/L, the Classification ([4]; clinical isolate A353) was “Bactericidal (bactericidal if the MBC/MIC ratio was <4)” and the MBC ([4]; clinical isolate G73) was 1 mg/L. The Classification ([4]; clinical isolate G73) was “Bacteriostatic (bacteriostatic if the ratio was >4)”, the MBC ([4]; clinical isolate G74) was 1 mg/L and the Classification ([4]; clinical isolate G74) was “Bacteriostatic (bacteriostatic if the ratio was >4)”. The MBC ([4]; clinical isolate G87) was 0.5 mg/L, the Classification ([4]; clinical isolate G87) was “Bacteriostatic (bacteriostatic if the ratio was >4)” and the MBC ([4]; clinical isolate G104) was 0.25 mg/L. The Classification ([4]; clinical isolate G104) was “Bactericidal (bactericidal if the MBC/MIC ratio was <4)”, the MBC ([4]; clinical isolate G110) was 1 mg/L and the Classification ([4]; clinical isolate G110) was “Bacteriostatic (bacteriostatic if the ratio was >4)”. The MBC ([4]; clinical isolate G164) was 0.25 mg/L, the Classification ([4]; clinical isolate G164) was “Bactericidal (bactericidal if the MBC/MIC ratio was <4)” and the MBC ([4]; clinical isolate G182) was 1 mg/L. For the same substance, the Classification ([4]; clinical isolate G182) was “Bacteriostatic (bacteriostatic if the ratio was >4)”, the MIC (M. peregrinum) was 0.125 mg/L and the MIC (M. abscessus) was 0.063 mg/L. It also gave an MIC (M. smegmatis) of 0.125 mg/L.
